In assay [1] the test system is Cercosporidium personatum. Nature of the assay: Fungal germination and growth, treated disc on agar, scored (CER PER). The arrangement: key: 100: Complete inhibition of germination and growth.; 80: Nearly complete inhibition but some growth.; 50: Partial inhibition of growth or, early complete inhibition but later growth begins.; 20: Some inhibition of growth, but not significant.; 0: No inhibition of growth. To be noted: disc dipped in 500 mg/l, 29° C., numerical score 0-100, spore suspension. Format: cell-based. The procedure, abridged:
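Acetone test solutions dried on 11 mm filter paper discs, placed on agar; two drops of C. personatum spore suspension (20,000 spores/ml) applied per disc. Plates incubated at 29° C; germination and growth scored 0 (no inhibition) to 100 (complete inhibition), untreated discs as controls.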

The next assay concerns Erysiphe graminis. Nature of the assay: Powdery mildew in barley, foliar application (ERY GRA). Format: in vivo. To be noted: foliar, 1,000 mg/l, 8 days after inoculation; for pest or weed control at 1000 µg/mL: Blumeria graminis, foliar, 192 h, read-out: Percent Reduction of Disease, ERY GRA. The procedure, abridged: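 'Robust' barley plants sprayed with acetone/TWEEN 20 aqueous emulsion at 1,000 mg/l, dried, then kept at 21° C in a greenhouse. Inoculated by distributing Erysiphe graminis spores from infected plants. Percent control computed from disease scores vs unsprayed control pots.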

A further assay deals with Helminthosporium sativum. Put plainly: Barley spot blotch, foliar treatment (HEL SAT). Format: in vivo. Particulars: foliar, 1,000 mg/l; for pest or weed control at 1000 µg/mL: Helminthosporium, foliar, 216 h, read-out: Percent Reduction of Disease, HEL SAT. The procedure, abridged:
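Six-day-old "Robust" barley, 10 plants per pot, sprayed at 1,000 mg/l (acetone solution emulsified in water with TWEEN 20) or left unsprayed as controls. All plants then inoculated with H. sativum spores, held 24 h at 99% humidity, then 8 days in greenhouse at 21° C. Percent control computed.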

Another assay has as its system Rhizoctonia solani. Nature of the assay: Fungal growth inhibition, treated disc on agar (RHI SOL). Format: cell-based. To be noted: disc dipped in 500 mg/l, 29° C.; for inhibition at 500 µg/mL: Rhizoctonia solani, read-out: Percent Growth Inhibition, RHI SOL.

Structures are written as SMILES.

Here are results for twelve compounds from patent publication US5945436A, “Pyridylmethyl nitriles, amides and thioamides useful as fungicides” (Uniroyal Chemical Company, Inc., priority 1997, dated 1999).

`CCCCC(C#N)(CCc1ccc(OCCC)cc1)c1cccnc1` (stereo not drawn) [Compound 69]: in assay [1], the “CER PER inhibition score” value worked out at 0. For the same compound, the “Percent Reduction of Disease, ERY GRA” value in the assay with Erysiphe graminis is listed as 50%. Further, in the assay on Helminthosporium sativum, the “Percent Reduction of Disease, HEL SAT” value amounted to 85%. The “Percent Growth Inhibition, RHI SOL” value in the assay with Rhizoctonia solani worked out at 5%.
For the compound `C=CCC(C#N)(CCCc1ccccc1OC)c1cccnc1` (stereo not drawn) [Compound 70], the “CER PER inhibition score” value in assay [1] worked out at 100. Moreover, the pest or weed control at 1000 µg/mL with Erysiphe graminis worked out at 92%; with Helminthosporium sativum, 100%. The inhibition (usually the percentage by which the read-out fell short of the control) at 500 µg/mL with Rhizoctonia solani was determined as 28%.
Take `CCCC(C#N)(CCCc1ccccc1OC)c1cccnc1` (stereo not drawn) [Compound 71]: the “CER PER inhibition score” value in assay [1] is 100. Also, the pest or weed control at 1000 µg/mL with Erysiphe graminis and in the assay with Helminthosporium sativum was 100% each time. The inhibition at 500 µg/mL in the assay on Rhizoctonia solani was 6%.
Turning to `CCCC(C#N)(CCc1ccccc1C(F)(F)F)c1cccnc1` (stereo not drawn) [Compound 72], in assay [1], the “CER PER inhibition score” value came out at 0. Moreover, the pest or weed control at 1000 µg/mL in the assay with Erysiphe graminis worked out at 100%; in the assay with Helminthosporium sativum, 83%. The inhibition at 500 µg/mL in the assay with Rhizoctonia solani was 38%.
As to `CCCCC(C#N)(CCc1ccccc1C(F)(F)F)c1cccnc1` (stereo not drawn) [Compound 73], the “CER PER inhibition score” value in assay [1] is 0. The pest or weed control at 1000 µg/mL with Erysiphe graminis and with Helminthosporium sativum was 100% each time. The inhibition at 500 µg/mL with Rhizoctonia solani came out at 34%.
Regarding `CCCCC(C#N)(CCc1ccccc1F)c1cccnc1` (stereo not drawn) [Compound 74], in assay [1], the “CER PER inhibition score” value was found to be 0. In addition, the pest or weed control at 1000 µg/mL in the assay with Erysiphe graminis and in the assay with Helminthosporium sativum was 100% in each case. Besides, the inhibition at 500 µg/mL in the assay with Rhizoctonia solani came to 100%.
As for `CCCC(C#N)(CCc1ccccc1F)c1cccnc1` (stereo not drawn) [Compound 75], the “CER PER inhibition score” value in assay [1] stood at 0. The pest or weed control at 1000 µg/mL with Erysiphe graminis and in the assay with Helminthosporium sativum was 92% throughout. The inhibition at 500 µg/mL with Rhizoctonia solani is 100%.
Consider `CCCCC(C#N)(CCCc1ccc(OC)cc1)c1cccnc1` (stereo not drawn) [Compound 76], for which the “CER PER inhibition score” value in assay [1] was found to be 100. The pest or weed control at 1000 µg/mL in the assay with Erysiphe graminis and in the assay with Helminthosporium sativum was 100% each time. For the same compound, in the assay on Rhizoctonia solani, the inhibition at 500 µg/mL is 6%.
Regarding `N#CC(CCc1ccc(F)cc1)(CCC(F)(F)F)c1cccnc1` (stereo not drawn) [Compound 77], in assay [1], the “CER PER inhibition score” value amounted to 0. The pest or weed control at 1000 µg/mL with Erysiphe graminis and in the assay on Helminthosporium sativum was 90% in each case. Moreover, the inhibition at 500 µg/mL with Rhizoctonia solani stood at 40%.
As for `N#CC(CCCC(F)(F)F)(CCc1ccc(F)cc1)c1cccnc1` (stereo not drawn) [Compound 78], in assay [1], the “CER PER inhibition score” value amounted to 0. For the same compound, the pest or weed control at 1000 µg/mL in the assay on Erysiphe graminis turned out to be 100%; with Helminthosporium sativum, 83%. In addition, the inhibition at 500 µg/mL with Rhizoctonia solani worked out at 0%.
For `Cc1ccc(CCC(C#N)(CCCC(F)(F)F)c2cccnc2)cc1` (stereo not drawn) [Compound 79] the same measures were 0, 100%, 100% and 35%.
For `Cc1ccc(CCC(C#N)(CCC(F)(F)F)c2cccnc2)cc1` (stereo not drawn) [Compound 80], the “CER PER inhibition score” value in assay [1] amounted to 0. Also, the pest or weed control at 1000 µg/mL in the assay with Erysiphe graminis and with Helminthosporium sativum was 100% throughout. Further, in the assay with Rhizoctonia solani, the inhibition at 500 µg/mL was found to be 62%.
